The target of test [1] is Beta-1 adrenergic receptor (Rattus norvegicus, UniProt P18090).
Description: Antagonist activity at rat wild type beta-1 adrenergic receptor expressed in CHO cells
Test [2] concerns the target Beta-1 adrenergic receptor (Rattus norvegicus, UniProt P18090, Y356F).
The target in test [3] is Beta-1 adrenergic receptor (Rattus norvegicus, UniProt P18090, Y356A).
Test [4] deals with Beta-1 adrenergic receptor (Rattus norvegicus, UniProt P18090, W134A).
The target of test [5] is Beta-1 adrenergic receptor (Rattus norvegicus, UniProt P18090, S190A).
Beta-1 adrenergic receptor (Rattus norvegicus, UniProt P18090, S190A), sequence (P18090 whole entry S190A): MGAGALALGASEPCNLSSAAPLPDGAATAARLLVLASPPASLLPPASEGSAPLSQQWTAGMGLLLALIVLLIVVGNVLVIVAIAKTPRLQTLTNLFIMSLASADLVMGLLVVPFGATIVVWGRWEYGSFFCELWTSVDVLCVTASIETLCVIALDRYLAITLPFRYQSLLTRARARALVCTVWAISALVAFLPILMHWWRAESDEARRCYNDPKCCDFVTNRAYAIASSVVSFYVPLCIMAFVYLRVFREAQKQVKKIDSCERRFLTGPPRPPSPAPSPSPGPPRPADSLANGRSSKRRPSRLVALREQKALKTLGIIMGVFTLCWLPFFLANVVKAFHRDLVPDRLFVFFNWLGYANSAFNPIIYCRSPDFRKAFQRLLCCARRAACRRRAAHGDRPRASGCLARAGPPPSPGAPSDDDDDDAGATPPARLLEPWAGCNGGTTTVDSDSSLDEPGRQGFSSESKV

Beta-1 adrenergic receptor (Rattus norvegicus, UniProt P18090, W134A), sequence (P18090 whole entry W134A): as the sequence (P18090 whole entry S190A) above, with W134A, A190S counted along it
Beta-1 adrenergic receptor (Rattus norvegicus, UniProt P18090), sequence (P18090 whole entry): as the sequence (P18090 whole entry S190A) above, with A190S counted along it
Beta-1 adrenergic receptor (Rattus norvegicus, UniProt P18090, Y356F), sequence (P18090 whole entry Y356F): as the sequence (P18090 whole entry S190A) above, with A190S, Y356F counted along it
Beta-1 adrenergic receptor (Rattus norvegicus, UniProt P18090, Y356A), sequence (P18090 whole entry Y356A): as the sequence (P18090 whole entry S190A) above, with A190S, Y356A counted along it

As a reminder, the Ki is a measure of affinity in units of concentration, obtained from inhibition or displacement. Higher therefore signals a looser hold on the target. On to `CCOCCOc1ccc(OC[C@@H](O)CNCCc2ccc(OC)c(OC)c2)cc1`, for which the Ki was 50.1 nM in test [1]; 100 nM in test [2]; 794 nM in test [3]; 79.4 nM in test [4]; 12600 nM in test [5].

As usually defined, the Kd is the concentration at which binding is half-saturated. Higher therefore signals lower affinity. On to `CC(C)(C)NCC(O)COc1cccc2[nH]c(C#N)c(I)c12` (stereo not given), for which the Kd is 0.0631 nM in test [1]; 0.0794 nM in test [2]; 0.316 nM in test [3]; 0.0631 nM in test [4]; 0.0631 nM in test [5].

In the case of `N#Cc1cc(OCCOCC2CC2)ccc1OCC(O)CNCCNC(=O)Nc1ccc(O)cc1` (stereo not given) [LK-204545], the Ki is 7.94 nM in test [1]; 79.4 nM in test [2]; 79400 nM in test [3]; 63.1 nM in test [4]; 100 nM in test [5].

Regarding `Cn1cc(C(F)(F)F)nc1-c1ccc(OCC(O)CNCCOc2ccc(O)c(C(N)=O)c2)cc1` (stereo not given) [CGP-20712A], the Ki in test [1] was 1.26 nM; in test [2], 2 nM; in test [3], 10000 nM; in test [4], 7.94 nM; in test [5] it was 794 nM.

Turning to `CC(C)(C)NCC(O)COc1cccc2[nH]c(C#N)cc12` (stereo not given) [CYANOPINDOLOL], the Ki was 0.0501 nM in test [1]; 0.0398 nM in test [2]; 316 nM in test [3]; 0.126 nM in test [4]; 0.316 nM in test [5].

For the origin of these results see ChEMBL document CHEMBL1148532, “Role of Tyr(356(7.43)) and Ser(190(4.57)) in antagonist binding in the rat beta1-adrenergic receptor” (J Med Chem, 2006).
